Experiments:
[1] = system: reserpine-induced hypothermia; assay: reserpine-induced hypothermia competitive test; format: in vivo, mice (ddY-strain)
Description: Male 8 ddY-strain mice (5 weeks old, purchased from Japan SLC, Inc.) were used for each group as test animals. The animals were kept under the same conditions as in Example 1. The experiment was carried out on the four groups such as the groups treated with D-ribose at doses of 30 mg/kg, 100 mg/kg, 300 mg/kg, and the control group. The animals were grouped based on the body temperature (rectal temperature) which had been previously measured prior to the experiment so that the average body temperature of each group becomes equal. D-ribose was dissolved in distilled water and administered orally at 10 ml/kg once a day and repeatedly for one week. To the control group, distilled water was administered orally instead of aqueous D-ribose solution. The reserpine-induced hypothermia competitive test was a modification of the method of Wachtel (cf., Neuropharmacology, 22 (3), p. 267-272 (1983)). Namely, a solution of reserpine (Daiichi Pharmaceutical Co. Ltd.) in an aqueous propylene glycol solution was subcutaneously administered to the mice in each group at a dose of 1 mg/kg (i.e., in an amount of 10 ml/kg) just before administration of a test compound or distilled water, and subsequently, D-ribose or distilled water were administered orally to the mice, and then the rectal temperature of each mouse was measured on 1, 2, 4, 6 and 8 hours after administration of D-ribose or distilled water. In the experiment, the reserpine treatment and the administration of the test compound were carried out during from 10:00 AM to 11:00 AM. The results were expressed as mean±standard error in each group. The significant differences between the groups were studied by Bonferroni/Dun multiple comparison test with a significance level of 5%. Male 8 ddY-strain mice (5 weeks old, purchased from Japan SLC, Inc.) were used for each group as test animals. The animals were kept under the same conditions as in Example 1. […] To the control group, distilled water was administered orally. The grouping, the administration of reserpine and the measurement of body temperature were carried out in the same manner as in Example 3. The results were expressed as mean±standard error for each group. The significant differences between the groups were studied by Bonferroni/Dunn multiple comparison test with a significance level of 5%.

[2] = system: human; assay: evaluation of effect of maintaining concentration in human (random number table test); format: in vivo; settings: healthy volunteers; D-ribose 2.2 g/day for 7 days, crossover vs dextrin control
From the text: The effect of maintaining concentration by D-ribose in human can be evaluated by the test using a random number table (cf., Sports Mental Training for Winning Games, written by Yoshihide TAKAHATA, published by NATSUME CO, LTD., 2003).
Twenty healthy volunteers are grouped into two groups, i.e., the D-ribose 2.2 g/day-treated group, and the control group. The volunteers in the D-ribose 2.2 g/day-treated group take an aqueous solution of D-ribose (2.2 g), a roasted green tea extra (0.24 g) and sucralose (2 mg) in distilled water for injection per day. The volunteers in the control group take an aqueous solution of dextrin (2.2 g), a roasted green tea extra (0.24 g) and sucralose (2 mg) in distilled water per day. […]
The evaluation test for concentration power is carried out as follows. […] Then, the number of marked cells is compared between both groups and the concentration power is evaluated therefrom.
Further, after one-month washout period from the above evaluation test for concentration power, the volunteers in both groups are exchanged each other, and then the same test is carried out again on the volunteers. Combining the results of these two tests, the effect of maintaining concentration by D-ribose is comprehensively evaluated.

[3] = system: rats; assay: soaking fatigue test in rats; format: in vivo, rats (SD-strain); settings: orally twice a day divided, 5 days
Description: Male 10 SD-strain rats (7 weeks old, purchased from Japan SLC, Inc.) were used for each group as test animals. The animals were grouped based on the body weights which had been previously measured prior to the experiment so that the average body weight of each group becomes equal. The animals were kept under the same conditions as in Example 1. The experiment was carried out on the 3 groups, such as the groups treated with D-ribose at doses of 300 mg/kg, 1000 mg/kg, and the control group. To the D-ribose-treated groups, D-ribose was dissolved in distilled water for injection in a predetermined amount for each body weight, and the resulting aqueous solution was mandatorily administered orally to the rats at a dose of 10 ml/kg. To the control group, distilled water for injection was mandatorily administered orally instead of aqueous D-ribose solution at a dose of 10 ml/kg.
The soaking fatigue test in rats was carried out by a modification of the method of Tanaka (cf., Igaku-no-Ayumi, 204 (5), 362-364 (2003)). Briefly, the rats in each group were kept in a cage where water at 23±1° C. was filled at a water depth of about 1.5 cm for 5 days, during which D-ribose was orally administered to the rats twice a day at 10 A.M. and 3 P.M. with divided amount of the daily dose (300 mg/kg or 1000 mg/kg), i.e., at each time 150 mg/kg or 500 mg/kg, respectively, for 5 days in a row. Twenty-four hours after the last administration, the rats were loaded with a weight (about 20 g, about 8°% of the body weight) at a position of about ⅘ distant from the root. Each rat was forced to swim individually in a clear acrylic cylindrical water bath (inner diameter: 25 cm, height: 60 cm) containing warm water (25±2° C., water-depth: 50 cm). The time from the beginning of swimming until the nose of the rat sank down into the water for more than 10 seconds was measured.
The results were expressed as mean±standard error for each group. The significant differences between the groups were studied by Bonferroni/Dun multiple comparison test with a significance level of 5%.

[4] = system: mice; assay: forced swimming test in mice; format: in vivo, mice (ddY-strain)
Description: Male 10 ddY-strain mice (5 weeks old, purchased from Japan SLC, Inc.) were used for each group as test animals. The animals were housed in groups of 20 mice in a plastic-made cage (26×43×16 cm; Clea Japan Inc.), and they were kept in the animal room maintained at 23±2° C. with 30 to 80% humidity, and illuminated for 12 hr (6:30 to 18:30). The animals were allowed free access to pellet diets (CRF-1, Oriental Yeast, Co., Ltd.), and tap water.
The experiment was carried out on the four groups, such as the groups treated with D-ribose at doses of 30 mg/kg, 100 mg/kg, 300 mg/kg, and the control group. The animals were grouped based on the body weights which had been previously measured prior to the experiment so that the average body weight of each group becomes equal. D-ribose was dissolved in distilled water and administered orally at 10 ml/kg once a day and repeatedly for one week in mice. To the control group, distilled water was administered orally instead of aqueous D-ribose solution. […] Briefly, the animals were forced to swim twice, i.e., for 15 minutes prior to the treatment of a test compound or distilled water on the day before the final administration, and further for 5 minutes one hour after the final administration on the following day. That is, the mice were forced to swim in a clear polycarbonate-made measuring cylinder (internal diameter: 10 cm, height: 25 cm) containing water up to a height of 10 cm at a temperature of 250° C., and the duration of the immobility during the second swimming was recorded.
The results were expressed as mean±standard error for each group. The significant differences between the groups were studied by Dunnett's multiple comparison test with a significance level of 5%.
Male10 ddY-strain male mice (5 weeks old, purchased from Japan SLC, Inc.) were used for each group as test animals. The animals were kept under the same conditions as in Example 1. The experiment was carried out on the four groups, such as the groups treated with D-ribose 100 mg/kg, potassium magnesium aspartate (Mg.K aspartate) 50 mg/kg, and D-ribose 100 mg/kg+Mg.K aspartate 50 mg/kg, and the control group. The animals were grouped based on the body weights which had been previously measured prior to the experiment so that the average body weight of each group becomes equal. D-ribose and potassium magnesium aspartate were dissolved in distilled water and administered orally at 10 ml/kg once a day and repeatedly for one week. […]
Male 10 ddY-strain mice (5 weeks old, purchased from Japan SLC, Inc.) were used for each group as test animals. The animals were grouped based on the body weights which had been previously measured prior to the experiment so that the average body weight of each group becomes equal. […]

SMILES | reserpine-induced hypothermia (rectal temperature) ([1]; Example 3, 30 mg/kg orally once a day for one week, reserpine 1 mg/kg s.c.) | reserpine-induced hypothermia (rectal temperature) ([1]; Example 3, 100 mg/kg orally once a day for one week, 4 or 6 hours after administration) | reserpine-induced hypothermia (rectal temperature) ([1]; Example 3, 300 mg/kg orally once a day for one week, 4 or 6 hours after administration) | reserpine-induced hypothermia (rectal temperature) ([1]; Example 4, D-ribose alone 100 mg/kg orally, at 4 and 6 hours after treatment) | concentration power (number of marked cells) [2] | anti-fatigue effect (duration of swimming) ([3]; 300 mg/kg daily dose, swim 24 h after last administration) | anti-fatigue effect (duration of swimming) ([3]; 1000 mg/kg daily dose, stress-related fatigue caused by breeding under soaking) | duration of swimming longer than that in the control group ([3]; 1000 mg/kg daily dose, swim 24 h after last administration) | duration of immobility ([4]; Comparative Example 1, D-ribose 100 mg/kg and 300 mg/kg orally for one week) | duration of immobility ([4]; Example 1, 300 mg/kg orally once a day for one week, vs control group) | duration of immobility ([4]; Example 2, D-ribose 100 mg/kg alone, orally once a day for one week) | duration of immobility ([4]; Example 2, Mg.K aspartate 50 mg/kg alone, orally once a day for one week)
O=C[C@H](O)[C@H](O)[C@H](O)CO [D-ribose] | not significantly alleviated | significantly and nearly dose-relatively alleviated | significantly and nearly dose-relatively alleviated | significantly alleviated | dominantly maintained | any significant anti-fatigue effect was observed | significant anti-fatigue effect | about 70% | dose-depending reduction | significantly reduced | not significantly reduced | 
N[C@@H](CC(=O)O)C(=O)O.[K+].[Mg+2] [Mg.K aspartate, potassium magnesium aspartate] |  |  |  |  |  |  |  |  |  |  |  | not significantly reduced

From patent US20070191287A1, “D-ribose for improving depression-like symptoms” (priority 2004, published 2007)
